# Experimental data reported in patent publication US9006487B2, “Amine-containing lipids and uses thereof” (Massachusetts Institute of Technology, priority 2005, dated 2015).
# “And” between values parts separate entries of the source, which are not always exact repeats. Equal values may be shown once.
# Experiments:
# Format in all cases: cell-based
# cos-7 cells = experiment: DNA transfection: luciferase expression relative to Lipofectamine 2000; conditions: for Luciferase expression as a percentage of that achieved using Lipofectamine 2000: 300 ng Luciferase DNA per well, luciferase assay after 48 hours; for luciferase expression (second part of table, values relative to LIPO2000): 300 ng of DNA per well
# Summary of the method: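 Lipid/DNA complexes, 300 ng luciferase DNA per well at 2.5-25 w/w lipid:DNA, were formed in sodium acetate/Optimem and added to overnight-seeded cos-7 cells. Luciferase was measured by Bright-Glo luminescence after 48 hours and quantified against an enzyme standard curve. Values are expressed as % of Lipofectamine 2000 at 2.5 w/w.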
# [1] = test system: renilla and firefly luciferases; experiment: siRNA delivery: reporter-protein (renilla luciferase) knockdown relative to Lipofectamine 2000, firefly luciferase as viability control; conditions: 50 ng of siRNA per well
# Description: Reporter-protein knockdown achieved by the top transfecting lipids relative to Lipofectamine™ 2000 (where negative values indicate improved knockdown). The assay accounts for toxicity, monitoring expression of both renilla and firefly luciferases, where the latter serves as viability control. For each lipid, 50 ng of siRNA was added per well at specific lipid/RNA w/w ratios (from top to bottom: 2.5, 5, 10, 15).
# [2] = DNA delivery: raw luciferase expression (relative light units) of best-transfecting lipids; conditions: 300 ng of DNA per well
# Description: Raw values for luciferase expression (relative lights units) of best-transfecting lipids at lipid/DNA (w/w) ratios listed. 300 ng of DNA was added per well.
# [3] = 1st column, no head printed (2.5 w/w by the raw values)
# [4] = 2nd column, no head printed (5 w/w by the raw values)
# [5] = 3rd column, no head printed (10 w/w by the raw values)
# [6] = 4th column, no head printed (15 w/w by the raw values)
Structure (SMILES),"luciferase expression (second part of table, values relative to LIPO2000) (cos-7 cells; lipid/DNA 2.5 w/w)","luciferase expression (second part of table, values relative to LIPO2000) (cos-7 cells; lipid/DNA 5 w/w)","luciferase expression (second part of table, values relative to LIPO2000) (cos-7 cells; lipid/DNA 10 w/w)","luciferase expression (second part of table, values relative to LIPO2000) (cos-7 cells; lipid/DNA 15 w/w)","luciferase expression (second part of table, values relative to LIPO2000) (cos-7 cells; lipid/DNA 20 w/w)","luciferase expression (second part of table, values relative to LIPO2000) (cos-7 cells; lipid/DNA 25 w/w)",Raw values for luciferase expression ([2]; lipid/DNA 2.5 w/w),Raw values for luciferase expression ([2]; lipid/DNA 5 w/w),Raw values for luciferase expression ([2]; lipid/DNA 10 w/w),Raw values for luciferase expression ([2]; lipid/DNA 15 w/w),other results
CCCCCCCCCCCCCCCOC(=O)CCN(CCOCCO)CCC(=O)OCCCCCCCCCCCCCCC [LG31],19.6,27.6,34.0,8.5,14.3,94.0,–,–,–,–,Luciferase expression as a percentage of that achieved using Lipofectamine 2000 (cos-7 cells; lipid/DNA 2.5 w/w): 19.6%; Luciferase expression as a percentage of that achieved using Lipofectamine 2000 (cos-7 cells; lipid/DNA 5 w/w): 27.6%; Luciferase expression as a percentage of that achieved using Lipofectamine 2000 (cos-7 cells; lipid/DNA 10 w/w): 34.0%; Luciferase expression as a percentage of that achieved using Lipofectamine 2000 (cos-7 cells; lipid/DNA 15 w/w): 8.5%; Luciferase expression as a percentage of that achieved using Lipofectamine 2000 (cos-7 cells; lipid/DNA 20 w/w): 14.3%; Luciferase expression as a percentage of that achieved using Lipofectamine 2000 (cos-7 cells; lipid/DNA 25 w/w): 94.0%; Reporter-protein knockdown relative to Lipofectamine 2000 (negative values indicate improved knockdown) ([1]; lipid/RNA 2.5 w/w): 41; Reporter-protein knockdown relative to Lipofectamine 2000 (negative values indicate improved knockdown) ([1]; lipid/RNA 5 w/w): 21.06; Reporter-protein knockdown relative to Lipofectamine 2000 (negative values indicate improved knockdown) ([1]; lipid/RNA 10 w/w): −2.714; Reporter-protein knockdown relative to Lipofectamine 2000 (negative values indicate improved knockdown) ([1]; lipid/RNA 15 w/w): −5.764
CCCCCCCCCCCCNC(=O)CCN(CCC(=O)NCCCCCCCCCCCC)CC(O)CO (stereo not shown) [ND24],157.6,30.5,2.4,0.2,0.0,0.0,5256861 relative lights units,1231973 relative lights units,–,–,–
CCCCCCCCCCCCCCNC(=O)CCN(CC)CCN(CC)CCC(=O)NCCCCCCCCCCCCCC [NF61],63.9,67.7,7.0,2.9,–,–,–,3689556 relative lights units and 3053999 relative lights units,–,–,"luciferase expression, second set of columns (replicate set of data) (cos-7 cells; [3]): 5.2; luciferase expression, second set of columns (replicate set of data) (cos-7 cells; [4]): 38.9; luciferase expression, second set of columns (replicate set of data) (cos-7 cells; [5]): 8.6; luciferase expression, second set of columns (replicate set of data) (cos-7 cells; [6]): 1.1"
CCCCCCCCCCCCCCNC(=O)CCN(CCO)CCN(CCC(=O)NCCCCCCCCCCCCCC)CCC(=O)NCCCCCCCCCCCCCC [NF109],205.2,46.2,1.7,0.0,–,–,–,–,1151621 relative lights units,108854 relative lights units,"luciferase expression, second set of columns (replicate set of data) (cos-7 cells; [3]): 74.5; luciferase expression, second set of columns (replicate set of data) (cos-7 cells; [4]): 22.5; luciferase expression, second set of columns (replicate set of data) (cos-7 cells; [5]): 3.9; luciferase expression, second set of columns (replicate set of data) (cos-7 cells; [6]): 1.6"
CCCCCCCCCCCCCCNC(=O)CCN(C)CCN(C)CCC(=O)NCCCCCCCCCCCCCC [NF60],6.8,21.9,28.9,49.1,–,–,–,–,2401570 relative lights units,3739668 relative lights units,–
CCCCCCCCCCCCNC(=O)CCN(CCC(=O)NCCCCCCCCCCCC)CC(C)O (stereo not shown) [ND22],29.2,61.7,48.0,4.4,0.4,0.2,721270 relative lights units,1083569 relative lights units,–,–,–
CCCCCCCCCCCCCCNC(=O)CCN(CCCN(CCO)CCO)CCC(=O)NCCCCCCCCCCCCCC [NF87],46.1,44.8,0.3,0.0,–,–,3904993 relative lights units,3436007 relative lights units,–,–,–
CCCCCCCCCCCCNC(=O)CCN(CCC(=O)NCCCCCCCCCCCC)C(CO)CO [ND25],226.4,125.8,19.5,0.5,0.0,0.0,7548491 relative lights units,5088120 relative lights units,–,–,–
CCCCCCCCCCCCNC(=O)CCN(CCCCCO)CCC(=O)NCCCCCCCCCCCC [ND32],531.2,67.9,1.1,0.1,0.0,0.0,17713202 relative lights units,2745231 relative lights units,–,–,–
CCCCCCCCCCCCNC(=O)CCN(CCOCCO)CCC(=O)NCCCCCCCCCCCC [ND31],7.7,5.6,47.6,44.9,7.6,19.7,–,–,1154404 relative lights units,936815 relative lights units,–
CCCCCCCCCCCCCCNC(=O)CCN(CCO)CCN(CCO)CCC(=O)NCCCCCCCCCCCCCC [NF103],183.1,23.6,0.0,0.0,–,–,–,–,2886271 relative lights units,772518 relative lights units,"luciferase expression, second set of columns (replicate set of data) (cos-7 cells; [3]): 66.2; luciferase expression, second set of columns (replicate set of data) (cos-7 cells; [4]): 51.3; luciferase expression, second set of columns (replicate set of data) (cos-7 cells; [5]): 0.6; luciferase expression, second set of columns (replicate set of data) (cos-7 cells; [6]): 0.0"
CCCCCCCCCCCCCCNC(=O)CCN(CC)CCCN(CC)CCC(=O)NCCCCCCCCCCCCCC [NF64],5.7,41.9,0.3,0.1,–,–,384317 relative lights units,2283250 relative lights units,–,–,–
